Reference: PubChem BioAssay AID1259407 (Chemical Carcinogenesis Research Information System (CCRIS), 2018)
The source made the active and inactive calls. How the calls were made is not given here.

Test system: CCRIS mutagenicity, Ames/micronucleus/aberration tests
Assay: CCRIS mutagenicity studies
[1] = Test System: AMES SALMONELLA TYPHIMURIUM, Strain/Indicator: TA98, Metabolic Activation: NONE, Method: PREINCUBATION
[2] = Test System: AMES SALMONELLA TYPHIMURIUM, Strain/Indicator: TA98, Metabolic Activation: NONE, Method: STANDARD PLATE
[3] = Test System: AMES SALMONELLA TYPHIMURIUM, Strain/Indicator: TA98, Metabolic Activation: RAT, LIVER, S-9, AROCLOR 1254, Method: STANDARD PLATE
[4] = Test System: AMES SALMONELLA TYPHIMURIUM, Strain/Indicator: TA100, Metabolic Activation: NONE, Method: PREINCUBATION
[5] = Test System: AMES SALMONELLA TYPHIMURIUM, Strain/Indicator: TA100, Metabolic Activation: NONE, Method: STANDARD PLATE
[6] = Test System: AMES SALMONELLA TYPHIMURIUM, Strain/Indicator: TA100, Metabolic Activation: RAT, LIVER, S-9, AROCLOR 1254, Method: STANDARD PLATE
[7] = Test System: AMES SALMONELLA TYPHIMURIUM, Strain/Indicator: TA102, Metabolic Activation: NONE, Method: STANDARD PLATE

## CCCCC(CC)COC(=O)c1ccccc1C(=O)O (stereo unspecified)
Test System: AMES SALMONELLA TYPHIMURIUM, Strain/Indicator: TA97, Metabolic Activation: NONE, Method: STANDARD PLATE
  mutagenic call: inactive; negative
Test System: AMES SALMONELLA TYPHIMURIUM, Strain/Indicator: TA97, Metabolic Activation: RAT, LIVER, S-9, AROCLOR 1254, Method: STANDARD PLATE
  mutagenic call: inactive; negative
Test System: AMES SALMONELLA TYPHIMURIUM, Strain/Indicator: TA97, Metabolic Activation: RAT, LIVER, S-9, DI(2-ETHYLHEXYL)PHTHALATE, Method: STANDARD PLATE
  mutagenic call: inactive; negative
Test System: AMES SALMONELLA TYPHIMURIUM, Strain/Indicator: TA98, Metabolic Activation: HAMSTER, LIVER, S-9, AROCLOR 1254 (10%), Method: PREINCUBATION
  mutagenic call: inactive; negative
[1]
  mutagenic call: inactive; negative
[2]
  mutagenic call: inactive; negative
Test System: AMES SALMONELLA TYPHIMURIUM, Strain/Indicator: TA98, Metabolic Activation: RAT, LIVER, S-9, AROCLOR 1254 (10%), Method: PREINCUBATION
  mutagenic call: inactive; negative
[3]
  mutagenic call: inactive; negative
Test System: AMES SALMONELLA TYPHIMURIUM, Strain/Indicator: TA98, Metabolic Activation: RAT, LIVER, S-9, DI(2-ETHYLHEXYL)PHTHALATE, Method: STANDARD PLATE
  mutagenic call: inactive; negative
Test System: AMES SALMONELLA TYPHIMURIUM, Strain/Indicator: TA100, Metabolic Activation: HAMSTER, LIVER, S-9, AROCLOR 1254 (10%), Method: PREINCUBATION
  mutagenic call: inactive; negative
[4]
  mutagenic call: inactive; negative
[5]
  mutagenic call: inactive; negative
Test System: AMES SALMONELLA TYPHIMURIUM, Strain/Indicator: TA100, Metabolic Activation: RAT, LIVER, S-9, AROCLOR 1254 (10%), Method: PREINCUBATION
  mutagenic call: inactive; negative
[6]
  mutagenic call: inactive; negative
Test System: AMES SALMONELLA TYPHIMURIUM, Strain/Indicator: TA100, Metabolic Activation: RAT, LIVER, S-9, DI(2-ETHYLHEXYL)PHTHALATE, Method: STANDARD PLATE
  mutagenic call: inactive; negative
[7]
  mutagenic call: inactive; negative
Test System: AMES SALMONELLA TYPHIMURIUM, Strain/Indicator: TA102, Metabolic Activation: RAT, LIVER, S-9, AROCLOR 1254, Method: STANDARD PLATE
  mutagenic call: inactive; negative
Test System: AMES SALMONELLA TYPHIMURIUM, Strain/Indicator: TA102, Metabolic Activation: RAT, LIVER, S-9, DI(2-ETHYLHEXYL)PHTHALATE, Method: STANDARD PLATE
  mutagenic call: inactive; negative
Test System: AMES SALMONELLA TYPHIMURIUM, Strain/Indicator: TA1535, Metabolic Activation: HAMSTER, LIVER, S-9, AROCLOR 1254 (10%), Method: PREINCUBATION
  mutagenic call: inactive; negative
Test System: AMES SALMONELLA TYPHIMURIUM, Strain/Indicator: TA1535, Metabolic Activation: NONE, Method: PREINCUBATION
  mutagenic call: inactive; negative
Test System: AMES SALMONELLA TYPHIMURIUM, Strain/Indicator: TA1535, Metabolic Activation: RAT, LIVER, S-9, AROCLOR 1254 (10%), Method: PREINCUBATION
  mutagenic call: inactive; negative
Test System: AMES SALMONELLA TYPHIMURIUM, Strain/Indicator: TA1537, Metabolic Activation: HAMSTER, LIVER, S-9, AROCLOR 1254 (10%), Method: PREINCUBATION
  mutagenic call: inactive; negative
Test System: AMES SALMONELLA TYPHIMURIUM, Strain/Indicator: TA1537, Metabolic Activation: NONE, Method: PREINCUBATION
  mutagenic call: inactive; negative
Test System: AMES SALMONELLA TYPHIMURIUM, Strain/Indicator: TA1537, Metabolic Activation: RAT, LIVER, S-9, AROCLOR 1254 (10%), Method: PREINCUBATION
  mutagenic call: inactive; negative

## CNS(=O)(=O)c1ccc(NC(C)=O)cc1
[1]
  mutagenic call: inactive; negative
Test System: AMES SALMONELLA TYPHIMURIUM, Strain/Indicator: TA98, Metabolic Activation: RAT, LIVER, S-9, AROCLOR 1254, Method: PREINCUBATION
  mutagenic call: inactive; negative
[4]
  mutagenic call: inactive; negative
Test System: AMES SALMONELLA TYPHIMURIUM, Strain/Indicator: TA100, Metabolic Activation: RAT, LIVER, S-9, AROCLOR 1254, Method: PREINCUBATION
  mutagenic call: inactive; negative

## CCN(CCC#N)c1ccc(N=Nc2c(Cl)cc([N+](=O)[O-])cc2Cl)cc1
[2]
  mutagenic call: active; positive
[3]
  mutagenic call: active; positive
Test System: AMES SALMONELLA TYPHIMURIUM, Strain/Indicator: YG1041, Metabolic Activation: NONE, Method: STANDARD PLATE
  mutagenic call: active; positive
Test System: AMES SALMONELLA TYPHIMURIUM, Strain/Indicator: YG1041, Metabolic Activation: RAT, LIVER, S-9, AROCLOR 1254, Method: STANDARD PLATE
  mutagenic call: active; positive

## Nc1cc([N+](=O)[O-])cc([N+](=O)[O-])c1
[1]
  mutagenic call: active; positive
[2]
  mutagenic call: active; positive
[3]
  mutagenic call: active; positive
Test System: AMES SALMONELLA TYPHIMURIUM, Strain/Indicator: TA98, Metabolic Activation: RAT, LIVER, S-9, KANECHLOR 500, Method: PREINCUBATION
  mutagenic call: active; positive
[4]
  mutagenic call: active; positive
[5]
  mutagenic call: active; positive
[6]
  mutagenic call: active; positive
Test System: AMES SALMONELLA TYPHIMURIUM, Strain/Indicator: TA100, Metabolic Activation: RAT, LIVER, S-9, KANECHLOR 500, Method: PREINCUBATION
  mutagenic call: active; positive

## CCCCCCCCCCCCCCCC(=O)OCC1(O)CC23CC[C@@H]4c5ccoc5C=CC4(C)C2CCC1C3 (stereo partly specified)
Test System: AMES SALMONELLA TYPHIMURIUM, Strain/Indicator: TM677, Metabolic Activation: NONE, Method: PREINCUBATION
  mutagenic call: inactive; negative
Test System: AMES SALMONELLA TYPHIMURIUM, Strain/Indicator: TM677, Metabolic Activation: RAT, LIVER, S-9, AROCLOR 1254, Method: PREINCUBATION
  mutagenic call: inactive; negative

## O=[N+]([O-])c1ccc2ccc3cc4c(c5ccc1c2c35)CCCC4O (stereo unspecified)
[2]
  mutagenic call: active; positive

## O=Cc1ccccc1O
[2]
  mutagenic call: inactive; negative
Test System: AMES SALMONELLA TYPHIMURIUM, Strain/Indicator: TA98, Metabolic Activation: S-9, Method: STANDARD PLATE
  mutagenic call: inactive; negative
[5]
  mutagenic call: inactive; negative
Test System: AMES SALMONELLA TYPHIMURIUM, Strain/Indicator: TA100, Metabolic Activation: S-9, Method: STANDARD PLATE
  mutagenic call: inactive; negative

## CC[C@@]1(O)C[C@H](O[C@H]2C[C@H](N(C)C)[C@H](O)[C@H](C)O2)c2c(cc3c(c2O)C(=O)c2c(O)ccc(O)c2C3=O)[C@H]1C(=O)OC
[7]
  mutagenic call: active; positive
Test System: AMES SALMONELLA TYPHIMURIUM, Strain/Indicator: TA104, Metabolic Activation: NONE, Method: STANDARD PLATE
  mutagenic call: active; positive
Test System: AMES SALMONELLA TYPHIMURIUM, Strain/Indicator: TA1537, Metabolic Activation: NONE
  mutagenic call: active; positive
Test System: AMES SALMONELLA TYPHIMURIUM, Strain/Indicator: TA1537, Metabolic Activation: RAT, LIVER, S-9, AROCLOR 1254
  mutagenic call: active; positive

## OCCOc1ccccc1
Test System: Ames Salmonella typhimurium, Strain/Indicator: TA98, Metabolic Activation: None, Method: Preincubation
  mutagenic call: inactive; negative
Test System: Ames Salmonella typhimurium, Strain/Indicator: TA98, Metabolic Activation: Rat, Liver, S-9, Phenobarbital and 5,6-benzoflavone, Method: Preincubation
  mutagenic call: inactive; negative
Test System: Ames Salmonella typhimurium, Strain/Indicator: TA100, Metabolic Activation: None, Method: Preincubation
  mutagenic call: inactive; negative
Test System: Ames Salmonella typhimurium, Strain/Indicator: TA100, Metabolic Activation: Rat, Liver, S-9, Phenobarbital and 5,6-benzoflavone, Method: Preincubation
  mutagenic call: inactive; negative
Test System: Ames Salmonella typhimurium, Strain/Indicator: TA1535, Metabolic Activation: None, Method: Preincubation
  mutagenic call: inactive; negative
Test System: Ames Salmonella typhimurium, Strain/Indicator: TA1535, Metabolic Activation: Rat, Liver, S-9, Phenobarbital and 5,6-benzoflavone, Method: Preincubation
  mutagenic call: inactive; negative
Test System: Ames Salmonella typhimurium, Strain/Indicator: TA1537, Metabolic Activation: None, Method: Preincubation
  mutagenic call: inactive; negative
Test System: Ames Salmonella typhimurium, Strain/Indicator: TA1537, Metabolic Activation: Rat, Liver, S-9, Phenobarbital and 5,6-benzoflavone, Method: Preincubation
  mutagenic call: inactive; negative
Test System: E. coli, Strain/Indicator: WP2uvrA/pKM101, Metabolic Activation: None, Method: Preincubation
  mutagenic call: inactive; negative
Test System: E. coli, Strain/Indicator: WP2uvrA/pKM101, Metabolic Activation: Rat, Liver, S-9, Phenobarbital and 5,6-benzoflavone, Method: Preincubation
  mutagenic call: inactive; negative
